Experimental data: patent US10385030B2, “Cationic lipid” (NOF CORPORATION, priority 2015, dated 2019)
“Also recorded” adds a separate entry of the source.

Experiments:
4T1 tumor = test: Gene expression activity (gene delivery into tumor) in vivo (Experimental Example 8); design: species or system BALB/c mice; conditions: MEND encapsulating pDNA, tail vein, 25 mg DNA, 48 hr; FIG. 6
Protocol: Various MENDs were prepared according to the method described in [Experimental Example 6]. Cancer-carrying mice were produced by subcutaneous administration of a suspension of mouse breast cancer-derived cancer cell line 4T1 cells (1×10^6 cells/mouse) to 6-week-old female BALB/c mice. At 7 days after the subcutaneous transplantation of the cancer cells, the prepared MEND solutions were administered each in an amount corresponding to […] from the tail vein. The mice were euthanized by a cervical spine […] method at 48 hr after the administration, the tumor was isolated and frozen with liquid nitrogen. The tumor was lysed in a Lysis buffer to prepare homogenate. The homogenate was centrifuged at 13,000 rpm, 10 min, 4° C., and the supernatant was collected and used as a measurement sample. The sample solution (20 μL) was mixed with a luciferase substrate (50 μL), and the luciferase activity was measured using Luminescenser-PSN (AB2200 ATTO). In addition, the concentration of the protein in the sample was quantified using a BCA protein assay kit, and the gene expression activity was measured as RLU/mg protein.

[1] = Particle size and surface potential of MENDs by dynamic light scattering (Experimental Example 6); format: physicochemical
Protocol: Various MENDs were prepared by the ethanol dilution method in [Experimental Example 1] (2), and DOPC was used as a phospholipid. PEG5000-DSG was used as a PEG lipid, and an amount corresponding to 5 mol % of the total lipid was added in Myr-C3M MEND, and an amount corresponding to 10 mol % was added in TS-PZ4C2 MEND.
pDNA solution (1 mg/mL), 100 mM malic acid buffer (pH 4.0), 5 M aqueous sodium chloride solution and sterilized water were mixed, and a solution having a final concentration of 0.1 mg/mL, 20 mM, 40 mM, respectively, was prepared and used as a DNA solution.
A lipid solution in ethanol was prepared by mixing 5 mM cationic lipid (L-PZ4C2, O-PZ4C2), 10 mM cholesterol (Chol), and 10 mM DOPC at desired ratios to achieve 840 nmol total lipid in a 5 mL tube, further adding PEG5000-DSG (1 mM ethanol solution) in an amount corresponding to 5 mol % of the total lipid, and adding ethanol to achieve a total amount of 200 μL (80% ethanol solution) and 20 mM malic acid buffer (pH 4.0). While stirring the lipid solution in a vortex mixer, the above-mentioned DNA solution (200 μL) was quickly added, after which 20 mM malic acid buffer (pH 4.0) (1600 μL) was added, phosphate buffered saline was added, and the mixture was diluted to an ethanol concentration of 8%. Similar operation was repeated three times and phosphate buffered saline was added to an ethanol concentration of 4%. Thereafter, using Amicon Ultra 15 (Millipore), the mixture was concentrated to about 200 μL by ultrafiltration under centrifugation condition (room temperature, 2267 rpm, 30 min). Thereafter, the mixture was diluted with phosphate buffered saline to 15 mL, and concentrated again by centrifugation (2267 rpm, for 30 min) under room temperature conditions. Finally, it was diluted to a desired lipid concentration with phosphate buffered saline.
The particle size and the surface potential were measured by the dynamic light scattering method (Zetasizer Nano).

[2] = compared to DOTAP, DODAP; known from patent document 1; cited from earlier work
[3] = Particle size and surface potential of MENDs by dynamic light scattering (Experimental Example 1); format: physicochemical
Protocol: A solution of pDNA encoding luciferase gene and a protamine (manufactured by CALBIOCHEM) solution were diluted with 10 mM HEPES buffer to 0.15 mg/mL and 96.3 μg/mL, respectively. While stirring 0.15 mg/mL pDNA solution (100 μL), 96.3 μg/mL protamine (100 μL) was added dropwise in small portions to prepare an electrostatic complex of protamine and pDNA (N/P ratio=1.0) as a core of the vector.
A lipid solution in ethanol was prepared by mixing 5 mM cationic lipid (Myr-C3M), 5 mM phospholipid (SOPC) and 5 mM cholesterol (Chol) at desired ratios to achieve 330 nmol total lipid in an Eppendorf tube, further adding PEG2000-DSG (1 mM ethanol solution) in an amount corresponding to 3 mol % of the total lipid, and adding ethanol to achieve a total volume of 200 μL. While stirring the lipid solution in a vortex mixer, 200 μL of the nucleic acid electrostatic complex (10 mM HEPES; pH 5.3) prepared in [Experimental Example 1] (1) was quickly added, and thereafter 10 mM HEPES buffer (1.6 mL, adjusted to pH 5.3) was added. Furthermore, 10 mM HEPES buffer (2 mL) adjusted to pH 5.3 was added to dilute the mixture to an ethanol concentration of 5%. The mixture was concentrated to about 50 μL by ultrafiltration using Amicon Ultra 4 (Millipore) under centrifugation conditions (room temperature, 1000 g, 15 min). Thereafter, it was diluted to 4 mL with 100 mM HEPES buffer (adjusted to pH 7.4), and again concentrated by centrifugation (1000 g, 15 min) under room temperature conditions. Thereafter, it was diluted to 4 mL with 10 mM HEPES buffer (pH 7.4), and again concentrated by centrifugation (1000 g, 15 min) under room temperature conditions. Finally, it was diluted with 10 mM HEPES buffer (pH 7.4) to a desired lipid concentration.
pDNA solution (1 mg/mL), 100 mM malic acid buffer (pH 4.0), 5 M aqueous sodium chloride solution and sterilized water were mixed, and a solution having final concentrations of 0.1 mg/mL, 20 mM, 40 mM, respectively, was prepared and used as a DNA solution.
A lipid solution in ethanol was prepared by mixing 5 mM cationic lipid (TS-PZ4C2 or TS-C3M), and 10 mM cholesterol (Chol) at desired ratios to achieve 600 nmol total lipid in a 5 mL tube, further adding PEG2000-DMG (5 mM ethanol solution) in an amount corresponding to 3 mol % of the total lipid, and adding ethanol to achieve a total volume of 200 μL. While stirring the lipid solution in a vortex mixer, the above-mentioned DNA solution (300 μL) was quickly added, after which 20 mM malic acid buffer (pH 4.0, containing 100 mM sodium chloride) (500 μL) was added, and phosphate buffered saline was added to dilute the mixture to the ethanol concentration of 10%. Similar operation was repeated three times and phosphate buffered saline was added to an ethanol concentration of 5%. Thereafter, the mixture was concentrated to about 200 μL by ultrafiltration using Amicon Ultra 15 (Millipore, under centrifugation conditions (room temperature, 2267 rpm, 20 min). Thereafter, it was diluted to 15 ml with phosphate buffered saline, and again concentrated by centrifugation (2267 rpm, 20 min) under conditions of room temperature. Finally, it was diluted with phosphate buffered saline to a desired lipid concentration.
The particle size and the surface potential were measured by the dynamic light scattering method (Zetasizer Nano; Malvern Instruments Ltd.).

[4] = MEND of L-PZ4C2, cationic lipid:DOPC:Chol = 6:1:3, PEG5000-DSG 5 mol %
[5] = MEND of Myr-C3M, cationic lipid:SOPC:Chol = 3:4:3, PEG2000-DSG 3 mol %
[6] = MEND of Myr-C3M, cationic lipid:DOPC:Chol = 3:4:3, PEG5000-DSG 5 mol %
[7] = MEND of O-PZ4C2, cationic lipid:DOPC:Chol = 6:1:3, PEG5000-DSG 5 mol %
[8] = MEND of TS-C3M, cationic lipid:Chol = 7:3, PEG2000-DMG 3 mol %
[9] = MEND of TS-PZ4C2, cationic lipid:Chol = 7:3, PEG2000-DMG 3 mol %
[10] = MEND of TS-PZ4C2, cationic lipid:Chol = 7:3, PEG5000-DSG 10 mol %

With `CCCCC/C=C\C/C=C\CCCCCCCC(=O)OCCN1CCN(CCSSCCN2CCN(CCOC(=O)CCCCCCC/C=C\C/C=C\CCCCC)CC2)CC1` [L-PZ4C2] the “gene delivery expression activity to tumor (luciferase activity, RLU/mg protein)” value (4T1 tumor) was “higher gene delivery expression activity to tumor than the lipid membrane structures using the cationic lipids of Comparative Example 1”, the PdI [1, 4] was 0.094 and the particle size [1, 4] was 108.7 nm. It also gave a zeta potential [1, 4] of 0.144 mV.

For `CCCCCCCCCCCCCC(=O)OCCCN(C)CCSSCCN(C)CCCOC(=O)CCCCCCCCCCCCC` [Myr-C3M], the “nucleic acid delivery efficiency” value [2] is given as “high nucleic acid delivery efficiency as compared to cationic lipids such as DOTAP, DODAP; also recorded: higher nucleic acid delivery efficiency as compared to conventional cationic lipids such as DOTAP, DODAP”, the PdI [3, 5] is given as 0.188 and the particle size [3, 5] is given as 128.3 nm. It also gave a zeta potential [3, 5] of 1.88 mV, a PdI [1, 6] of 0.134 and a particle size [1, 6] of 113.9 nm. It also gave a zeta potential [1, 6] of −0.135 mV.

In the case of `CCCCCCCC/C=C\CCCCCCCC(=O)OCCN1CCN(CCSSCCN2CCN(CCOC(=O)CCCCCCC/C=C\CCCCCCCC)CC2)CC1` [O-PZ4C2], the “gene delivery expression activity to tumor (luciferase activity, RLU/mg protein)” value (4T1 tumor) was “higher gene delivery expression activity to tumor than the lipid membrane structures using the cationic lipids of Comparative Example 1”, the PdI [1, 7] was 0.083 and the particle size [1, 7] was 115.2 nm. It also gave a zeta potential [1, 7] of −0.294 mV.

For `Cc1c(C)c2c(c(C)c1OC(=O)CCC(=O)OCCCN(C)CCSSCCN(C)CCCOC(=O)CCC(=O)Oc1c(C)c(C)c3c(c1C)CCC(C)(CCCC(C)CCCC(C)CCCC(C)C)O3)CCC(C)(CCCC(C)CCCC(C)CCCC(C)C)O2` (stereo not shown) [TS-C3M], the “nucleic acid delivery efficiency” value [2] is listed as “high nucleic acid delivery efficiency as compared to cationic lipids such as DOTAP, DODAP”, the PdI [3, 8] is listed as 0.08 and the particle size [3, 8] is listed as 141.3 nm. The zeta potential [3, 8] was −5.4 mV.

For `Cc1c(C)c2c(c(C)c1OC(=O)CCC(=O)OCCN1CCN(CCSSCCN3CCN(CCOC(=O)CCC(=O)Oc4c(C)c(C)c5c(c4C)CCC(C)(CCCC(C)CCCC(C)CCCC(C)C)O5)CC3)CC1)CCC(C)(CCCC(C)CCCC(C)CCCC(C)C)O2` (stereo not shown) [TS-PZ4C2], the PdI [3, 9] was 0.041, the particle size [3, 9] was 126.8 nm and the zeta potential [3, 9] was −7.38 mV. For the same compound, the PdI [1, 10] was 0.121, the particle size [1, 10] was 104.8 nm and the zeta potential [1, 10] was −0.897 mV.
